In PubChem BioAssay (NCI):
Values joined by “and” are separate entries in the source; they are usually repeats but may differ in a detail not shown here. Identical values can stand only once.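 Following 48 hours of exposure in 96-well plates, responses at five concentrations were used to interpolate endpoints linearly. GI50 = concentration required for 50% inhibition of growth. The concentration for full growth arrest is given as TGI.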

Each compound was assayed on SK-MEL-2 melanoma (assay: NCI-60 cell line screen, 48 h).
For O=C(Nc1cc(C(F)(F)F)cc(C(F)(F)F)c1)c1cc(Cl)ccc1O, the GI50 was 209 nM and 206 nM and the TGI was 589 nM and 981 nM.
For N#CNC(=NCc1ccccc1)N(Cc1ccccc1)Cc1ccccc1, the TGI was 26400 nM.

These compounds were tested on SK-MEL-28 melanoma (assay: NCI-60 cell line screen, 48 h).
CC1OC(c2ccc3c(OCc4ccccc4)cccc3c2O)CC(OCc2ccccc2)[C@H]1OCc1ccccc1 (stereo partly specified) showed a TGI of over 10000 nM.
For BrC(=C(c1ccc(OC2CCCCO2)cc1)c1ccc(OC2CCCCO2)cc1)c1ccccc1 (stereo unspecified), the TGI was over 100000 nM.
S=c1c2cn[nH]c2nc2scc(-c3ccc(Cl)cc3)n12 was tested, and the TGI was 46600 nM.
With O=C(Nc1cc(C(F)(F)F)cc(C(F)(F)F)c1)c1cc(Cl)ccc1O the GI50 was 285 nM and 199 nM and the TGI was 1840 nM and 1310 nM.
In the case of N#CNC(=NCc1ccccc1)N(Cc1ccccc1)Cc1ccccc1, the TGI is reported as over 31600 nM.

Each compound was assayed on SK-MEL-5 melanoma (assay: NCI-60 cell line screen, 48 h).
CC1OC(c2ccc3c(OCc4ccccc4)cccc3c2O)CC(OCc2ccccc2)[C@H]1OCc1ccccc1 (stereo partly specified) gave a TGI of over 10000 nM.
For S=c1c2cn[nH]c2nc2scc(-c3ccc(Cl)cc3)n12, the TGI was over 100000 nM.
Work on CC1(C)CC(=O)C(C(CC(c2ccccc2)c2cc3c(cc2O)OCO3)C2=C(O)CC(C)(C)CC2=O)=C(O)C1 (stereo unspecified) yielded a TGI of over 10000 nM.
O=C(Nc1cc(C(F)(F)F)cc(C(F)(F)F)c1)c1cc(Cl)ccc1O was tested, and the GI50 was 63.2 nM and 94 nM and the TGI was 206 nM and 257 nM.
COc1ccc2/c(=C/c3ccc(N(C)C)cc3)c3cc(-c4ccccc4)[n+](C)n3c2c1 was tested, and the TGI was 292 nM.
N#CNC(=NCc1ccccc1)N(Cc1ccccc1)Cc1ccccc1 was tested, and the TGI was 26700 nM.

The compounds below were run on SK-OV-3 ovarian (assay: NCI-60 cell line screen, 48 h).
In the case of CC1OC(c2ccc3c(OCc4ccccc4)cccc3c2O)CC(OCc2ccccc2)[C@H]1OCc1ccccc1 (stereo partly specified), the TGI is reported as over 10000 nM.
In the case of BrC(=C(c1ccc(OC2CCCCO2)cc1)c1ccc(OC2CCCCO2)cc1)c1ccccc1 (stereo unspecified), the TGI is reported as over 100000 nM.
Work on S=c1c2cn[nH]c2nc2scc(-c3ccc(Cl)cc3)n12 yielded a TGI of over 100000 nM.
With O=C(Nc1cc(C(F)(F)F)cc(C(F)(F)F)c1)c1cc(Cl)ccc1O the GI50 was 185 nM and 181 nM and the TGI was 642 nM and 947 nM.
In the case of COc1ccc2/c(=C/c3ccc(N(C)C)cc3)c3cc(-c4ccccc4)[n+](C)n3c2c1, the TGI is reported as 1680 nM.

The compounds below were run on SN12C renal (assay: NCI-60 cell line screen, 48 h).
CC1OC(c2ccc3c(OCc4ccccc4)cccc3c2O)CC(OCc2ccccc2)[C@H]1OCc1ccccc1 (stereo partly specified) was tested, and the TGI was over 10000 nM.
With BrC(=C(c1ccc(OC2CCCCO2)cc1)c1ccc(OC2CCCCO2)cc1)c1ccccc1 (stereo unspecified) the TGI was over 100000 nM.
Work on S=c1c2cn[nH]c2nc2scc(-c3ccc(Cl)cc3)n12 yielded a TGI of 32000 nM.
In the case of CC1(C)CC(=O)C(C(CC(c2ccccc2)c2cc3c(cc2O)OCO3)C2=C(O)CC(C)(C)CC2=O)=C(O)C1 (stereo unspecified), the TGI is reported as over 10000 nM.
With O=C(Nc1cc(C(F)(F)F)cc(C(F)(F)F)c1)c1cc(Cl)ccc1O the GI50 was 224 nM and 202 nM and the TGI was > 2730 nM and 1540 nM.
COc1ccc2/c(=C/c3ccc(N(C)C)cc3)c3cc(-c4ccccc4)[n+](C)n3c2c1 gave a TGI of 1600 nM.
For N#CNC(=NCc1ccccc1)N(Cc1ccccc1)Cc1ccccc1, the TGI was over 31600 nM.

These compounds were tested on SNB-19 CNS (assay: NCI-60 cell line screen, 48 h).
Work on BrC(=C(c1ccc(OC2CCCCO2)cc1)c1ccc(OC2CCCCO2)cc1)c1ccccc1 (stereo unspecified) yielded a TGI of over 100000 nM.
With S=c1c2cn[nH]c2nc2scc(-c3ccc(Cl)cc3)n12 the TGI was 86200 nM.
Work on CC1(C)CC(=O)C(C(CC(c2ccccc2)c2cc3c(cc2O)OCO3)C2=C(O)CC(C)(C)CC2=O)=C(O)C1 (stereo unspecified) yielded a TGI of over 10000 nM.
For O=C(Nc1cc(C(F)(F)F)cc(C(F)(F)F)c1)c1cc(Cl)ccc1O, the GI50 was 291 nM and 233 nM and the TGI was > 10000 nM and 12000 nM.
COc1ccc2/c(=C/c3ccc(N(C)C)cc3)c3cc(-c4ccccc4)[n+](C)n3c2c1 gave a TGI of 2200 nM.
Compound N#CNC(=NCc1ccccc1)N(Cc1ccccc1)Cc1ccccc1 has a TGI of over 100000 nM.

The compounds below were run on SNB-75 CNS (assay: NCI-60 cell line screen, 48 h).
With CC1OC(c2ccc3c(OCc4ccccc4)cccc3c2O)CC(OCc2ccccc2)[C@H]1OCc1ccccc1 (stereo partly specified) the TGI was over 10000 nM.
BrC(=C(c1ccc(OC2CCCCO2)cc1)c1ccc(OC2CCCCO2)cc1)c1ccccc1 (stereo unspecified) showed a TGI of over 100000 nM.
Work on S=c1c2cn[nH]c2nc2scc(-c3ccc(Cl)cc3)n12 yielded a TGI of 28200 nM.
CC1(C)CC(=O)C(C(CC(c2ccccc2)c2cc3c(cc2O)OCO3)C2=C(O)CC(C)(C)CC2=O)=C(O)C1 (stereo unspecified) gave a TGI of over 10000 nM.
With O=C(Nc1cc(C(F)(F)F)cc(C(F)(F)F)c1)c1cc(Cl)ccc1O the GI50 was 159 nM and 172 nM and the TGI was 586 nM.

These compounds were tested on SR leukemia (assay: NCI-60 cell line screen, 48 h).
With BrC(=C(c1ccc(OC2CCCCO2)cc1)c1ccc(OC2CCCCO2)cc1)c1ccccc1 (stereo unspecified) the TGI was over 100000 nM.
S=c1c2cn[nH]c2nc2scc(-c3ccc(Cl)cc3)n12 showed a TGI of 28900 nM.
In the case of O=C(Nc1cc(C(F)(F)F)cc(C(F)(F)F)c1)c1cc(Cl)ccc1O, the GI50 is reported as 218 nM and 228 nM.
In the case of COc1ccc2/c(=C/c3ccc(N(C)C)cc3)c3cc(-c4ccccc4)[n+](C)n3c2c1, the TGI is reported as 962 nM.
N#CNC(=NCc1ccccc1)N(Cc1ccccc1)Cc1ccccc1 was tested, and the TGI was over 72900 nM.

Each compound was assayed on SW-620 colon (assay: NCI-60 cell line screen, 48 h).
In the case of CC1OC(c2ccc3c(OCc4ccccc4)cccc3c2O)CC(OCc2ccccc2)[C@H]1OCc1ccccc1 (stereo partly specified), the TGI is reported as over 10000 nM.
BrC(=C(c1ccc(OC2CCCCO2)cc1)c1ccc(OC2CCCCO2)cc1)c1ccccc1 (stereo unspecified) was tested, and the TGI was over 100000 nM.
In the case of S=c1c2cn[nH]c2nc2scc(-c3ccc(Cl)cc3)n12, the TGI is reported as 22300 nM.
CC1(C)CC(=O)C(C(CC(c2ccccc2)c2cc3c(cc2O)OCO3)C2=C(O)CC(C)(C)CC2=O)=C(O)C1 (stereo unspecified) gave a TGI of over 10000 nM.
With O=C(Nc1cc(C(F)(F)F)cc(C(F)(F)F)c1)c1cc(Cl)ccc1O the GI50 was 316 nM and 312 nM and the TGI was 3260 nM and 10400 nM.
With COc1ccc2/c(=C/c3ccc(N(C)C)cc3)c3cc(-c4ccccc4)[n+](C)n3c2c1 the TGI was 1470 nM.
Compound N#CNC(=NCc1ccccc1)N(Cc1ccccc1)Cc1ccccc1 has a TGI of over 100000 nM.

These compounds were tested on T-47D breast (assay: NCI-60 cell line screen, 48 h).
CC1OC(c2ccc3c(OCc4ccccc4)cccc3c2O)CC(OCc2ccccc2)[C@H]1OCc1ccccc1 (stereo partly specified) gave a TGI of over 10000 nM.
Compound BrC(=C(c1ccc(OC2CCCCO2)cc1)c1ccc(OC2CCCCO2)cc1)c1ccccc1 (stereo unspecified) has a TGI of over 100000 nM.
O=C(Nc1cc(C(F)(F)F)cc(C(F)(F)F)c1)c1cc(Cl)ccc1O was tested, and the GI50 was 150 nM and 194 nM and the TGI was 604 nM and 1240 nM.
COc1ccc2/c(=C/c3ccc(N(C)C)cc3)c3cc(-c4ccccc4)[n+](C)n3c2c1 gave a TGI of 2770 nM.
For N#CNC(=NCc1ccccc1)N(Cc1ccccc1)Cc1ccccc1, the TGI was over 100000 nM.

The compounds below were run on TK-10 renal (assay: NCI-60 cell line screen, 48 h).
CC1OC(c2ccc3c(OCc4ccccc4)cccc3c2O)CC(OCc2ccccc2)[C@H]1OCc1ccccc1 (stereo partly specified) showed a TGI of over 10000 nM.
Work on BrC(=C(c1ccc(OC2CCCCO2)cc1)c1ccc(OC2CCCCO2)cc1)c1ccccc1 (stereo unspecified) yielded a TGI of over 100000 nM.
In the case of S=c1c2cn[nH]c2nc2scc(-c3ccc(Cl)cc3)n12, the TGI is reported as 31800 nM.
In the case of CC1(C)CC(=O)C(C(CC(c2ccccc2)c2cc3c(cc2O)OCO3)C2=C(O)CC(C)(C)CC2=O)=C(O)C1 (stereo unspecified), the TGI is reported as over 10000 nM.
For O=C(Nc1cc(C(F)(F)F)cc(C(F)(F)F)c1)c1cc(Cl)ccc1O, the GI50 was 442 nM and 387 nM and the TGI was > 10000 nM and 11100 nM.
With COc1ccc2/c(=C/c3ccc(N(C)C)cc3)c3cc(-c4ccccc4)[n+](C)n3c2c1 the TGI was 1430 nM.
Work on N#CNC(=NCc1ccccc1)N(Cc1ccccc1)Cc1ccccc1 yielded a TGI of over 31600 nM.

The compounds below were run on U251 CNS (assay: NCI-60 cell line screen, 48 h).
In the case of BrC(=C(c1ccc(OC2CCCCO2)cc1)c1ccc(OC2CCCCO2)cc1)c1ccccc1 (stereo unspecified), the TGI is reported as over 100000 nM.
Compound S=c1c2cn[nH]c2nc2scc(-c3ccc(Cl)cc3)n12 has a TGI of 25800 nM.
CC1(C)CC(=O)C(C(CC(c2ccccc2)c2cc3c(cc2O)OCO3)C2=C(O)CC(C)(C)CC2=O)=C(O)C1 (stereo unspecified) gave a TGI of over 10000 nM.
With O=C(Nc1cc(C(F)(F)F)cc(C(F)(F)F)c1)c1cc(Cl)ccc1O the GI50 was 234 nM and 228 nM and the TGI was > 9500 nM and 7900 nM.
COc1ccc2/c(=C/c3ccc(N(C)C)cc3)c3cc(-c4ccccc4)[n+](C)n3c2c1 was tested, and the TGI was 1270 nM.
With N#CNC(=NCc1ccccc1)N(Cc1ccccc1)Cc1ccccc1 the TGI was over 31600 nM.

What follows are compounds tested on UACC-257 melanoma (assay: NCI-60 cell line screen, 48 h).
In the case of CC1OC(c2ccc3c(OCc4ccccc4)cccc3c2O)CC(OCc2ccccc2)[C@H]1OCc1ccccc1 (stereo partly specified), the TGI is reported as over 10000 nM.
BrC(=C(c1ccc(OC2CCCCO2)cc1)c1ccc(OC2CCCCO2)cc1)c1ccccc1 (stereo unspecified) was tested, and the TGI was over 100000 nM.
S=c1c2cn[nH]c2nc2scc(-c3ccc(Cl)cc3)n12 showed a TGI of over 100000 nM.
For O=C(Nc1cc(C(F)(F)F)cc(C(F)(F)F)c1)c1cc(Cl)ccc1O, the GI50 was 196 nM and 194 nM and the TGI was 750 nM and 1210 nM.
COc1ccc2/c(=C/c3ccc(N(C)C)cc3)c3cc(-c4ccccc4)[n+](C)n3c2c1 gave a TGI of 888 nM.

These compounds were tested on UACC-62 melanoma (assay: NCI-60 cell line screen, 48 h).
Compound CC1OC(c2ccc3c(OCc4ccccc4)cccc3c2O)CC(OCc2ccccc2)[C@H]1OCc1ccccc1 (stereo partly specified) has a TGI of over 10000 nM.
Compound BrC(=C(c1ccc(OC2CCCCO2)cc1)c1ccc(OC2CCCCO2)cc1)c1ccccc1 (stereo unspecified) has a TGI of over 100000 nM.
With S=c1c2cn[nH]c2nc2scc(-c3ccc(Cl)cc3)n12 the TGI was over 100000 nM.
For O=C(Nc1cc(C(F)(F)F)cc(C(F)(F)F)c1)c1cc(Cl)ccc1O, the GI50 was 129 nM and 100 nM and the TGI was 668 nM and 595 nM.
With N#CNC(=NCc1ccccc1)N(Cc1ccccc1)Cc1ccccc1 the TGI was 23400 nM.

Each compound was assayed on UO-31 renal (assay: NCI-60 cell line screen, 48 h).
With BrC(=C(c1ccc(OC2CCCCO2)cc1)c1ccc(OC2CCCCO2)cc1)c1ccccc1 (stereo unspecified) the TGI was over 100000 nM.
S=c1c2cn[nH]c2nc2scc(-c3ccc(Cl)cc3)n12 showed a TGI of 41800 nM.
Compound CC1(C)CC(=O)C(C(CC(c2ccccc2)c2cc3c(cc2O)OCO3)C2=C(O)CC(C)(C)CC2=O)=C(O)C1 (stereo unspecified) has a TGI of over 10000 nM.
O=C(Nc1cc(C(F)(F)F)cc(C(F)(F)F)c1)c1cc(Cl)ccc1O was tested, and the GI50 was 246 nM and 224 nM and the TGI was 856 nM and 811 nM.
Work on COc1ccc2/c(=C/c3ccc(N(C)C)cc3)c3cc(-c4ccccc4)[n+](C)n3c2c1 yielded a TGI of 5200 nM.
Compound N#CNC(=NCc1ccccc1)N(Cc1ccccc1)Cc1ccccc1 has a TGI of 29300 nM.
